The source of these data is ChEMBL document CHEMBL4422611, “A review on diverse heterocyclic compounds as the privileged scaffolds in antimalarial drug discovery” (Eur J Med Chem, 2018).

For experiment [1], the system named is Plasmodium falciparum. The experiment in a line: Antimalarial activity against synchronized ring stage of Plasmodium falciparum infected in human RBC measured after 48 hrs. In kind it is functional, organism-based.
Experiment [2] has as its system Plasmodium falciparum. The experiment in a line: Antimalarial activity against Plasmodium falciparum. It counts as functional, organism-based.
The subject of experiment [3] is Plasmodium falciparum. The experiment in a line: Antimalarial activity against synchronized ring stage of chloroquine-sensitive Plasmodium falciparum 3D7 infected in human RBC assessed as parasite death at 5 ug/ml after 40 hrs by Giemsa staining based microscopic analysis relative to control. In kind it is functional.
In experiment [4] the test system is Plasmodium falciparum. The experiment in a line: Antimalarial activity against synchronized ring stage of chloroquine-resistant Plasmodium falciparum RKL2 infected in human RBC assessed as parasite death at 5 ug/ml after 40 hrs by Giemsa staining based microscopic analysis relative to control. In kind it is functional.
Experiment [5] relates to Plasmodium falciparum. The experiment in a line: Antimalarial activity against Plasmodium falciparum infected in human RBC after 72 hrs by Giemsa staining based assay. It counts as functional, organism-based.

pIC50: −log10 of the molar value. ≈ marks a conversion by molar mass, not a printed value.

For `Cc1nn(-c2ccccc2)c(-n2ccnc2)c1C1CC(c2ccc(Br)cc2)=NN1` (stereo not drawn), the IC50 (usually the concentration needed to halve the response being measured) in experiment [1] is 0.012 µg/mL. Same read-out and setting: for `Cc1nn(-c2ccccc2)c(-n2ccnc2)c1C1C(C#N)=C(N)Oc2c1c(=O)oc1ccccc21` (stereo not drawn) the value was 0.42 µg/mL.

`Cc1nn(-c2ccccc2)c(-n2ccnc2)c1C1C(C#N)=C(N)Oc2ccc3ccccc3c21` (stereo not drawn): the half-maximal inhibitory concentration (IC50) in experiment [1] is 0.32 µg/mL. Same read-out and setting: for `Cc1nn(-c2ccccc2)c(-n2ccnc2)c1C1C(C#N)=C(N)Oc2c1ccc1ccccc21` (stereo not drawn) the value was 0.54 µg/mL. Turning to `COc1ccc(NN2C(N)=C(C#N)C(c3c(C)nn(-c4ccccc4)c3Oc3cccc(C(F)(F)F)c3)C3=C2CC(C)(C)CC3=O)cc1` (stereo not drawn), the midpoint of inhibition in experiment [2], the IC50, lay at 0.042 µg/mL (≈ 0.0642 µM).

`Cc1nn(-c2ccccc2)c2c1C(c1c(C)nn(-c3ccccc3)c1-n1ccnc1)C(C#N)=C(N)O2` (stereo not drawn) had an IC50 in experiment [1] of 0.034 µg/mL.

With `Clc1ccc2c(NCCN3CCN(c4nc(N5CCOCC5)nc(N5CCOCC5)n4)CC3)ccnc2c1`, the Activity worked out at 6% in experiment [3] and 8% in experiment [4]. With `Cc1n[nH]c2c1C(C1CCCCC1)c1c(n(C)c(=O)n(C)c1=O)N2` (stereo not drawn), in experiment [1], inhibition was half-maximal at 0.033 µg/mL (IC50). In experiment [1], `CCOC(=O)C1=C(N)Oc2c(ccc(O)c2C)C1c1c(C)nn(-c2ccccc2)c1-n1ccnc1` (stereo not drawn) yielded an IC50 of 0.061 µg/mL.

`Cc1nn(-c2ccccc2)c2c1C(c1cccs1)c1c(n(C)c(=O)n(C)c1=O)N2` (stereo not drawn) returned an IC50 in experiment [1] of 0.033 µg/mL. On to `Cc1nn(-c2ccccc2)c(Oc2ccccc2F)c1-c1nnc(-c2ccc(Br)cc2)o1`, for which the pIC50 (in general, −log10 of the IC50, conventionally taken in molar units) in experiment [1] was 6.30.

In the case of `CCOC(=O)C1=C(N)OC2=C(C(=O)CC(C)(C)C2)C1c1c(C)nn(-c2ccccc2)c1-n1ccnc1` (stereo not drawn), the IC50 in experiment [1] turned out to be 0.067 µg/mL. Still for that read-out and setting: for `Cc1n[nH]c2c1C(c1c(C)nn(-c3ccccc3)c1-n1ccnc1)C(C#N)=C(N)O2` (stereo not drawn) the value was 0.57 µg/mL.

Take `COc1ccc2nc(Cl)c(/C=C3\C=C(c4ccc(C)cc4C)OC3=O)cc2c1`: the IC50 in experiment [5] is 0.5 µg/mL (≈ 1.28 µM).

The compound `Cc1nn(-c2ccccc2)c(-n2ccnc2)c1C1CC(c2ccc(Br)cc2)=NO1` (stereo not drawn) registered an IC50 in experiment [1] of 0.036 µg/mL. Still for that read-out and setting: for `Cc1nn(-c2ccccc2)c(-n2ccnc2)c1C1CC(c2ccc(O)cc2)=NN1` (stereo not drawn) the value was 0.036 µg/mL.

For the compound `CCOC(=O)C1=C(N)Oc2c(c(=O)n(C)c(=O)n2C)C1c1c(C)nn(-c2ccccc2)c1-n1ccnc1` (stereo not drawn), in experiment [1], the IC50 was 0.049 µg/mL.
